pIC50, pKd: −log10 of the molar value.
Key:
(His)6-SOX11-DBD protein = target: T1, (His)6-SOX11-DBD protein (Homo sapiens, UniProt P35716); assay: Surface Plasmon Resonance (SPR) assay; format: binding; conditions: immobilized recombinant (His)6-SOX11-DBD, 25° C., compounds 5-40 μM, mean of three experiments
T1 construct: Recombinant (His)6-SOX11-DBD protein was immobilized
T1 sequence (P35716 49-117 limits assumed): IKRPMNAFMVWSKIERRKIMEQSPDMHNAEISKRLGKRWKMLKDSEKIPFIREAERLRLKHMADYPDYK
Procedure: Surface Plasmon Resonance (SPR) Assay
Recombinant (His)6-SOX11-DBD protein was immobilized at a flow rate of 10 μl/min for 180 seconds to the right channel of a gold-coated SCR NiHC200M sensor chip (XanTec bioanalytics) placed in a Reichert 2SPR instrument (Reichert Technologies). The left channel, without immobilized protein, was used as a reference. […] Compounds flowed sequentially from the left to the right channel over the prepared sensor chip surface. 120 seconds association phase with each compound concentration was followed by 300 seconds dissociation phase with the assay buffer alone. The ka, kd, and KD values were determined from the sensograms for at least 3 concentrations of each compound by curve fitting the data using Reichert's TraceDrawer software. The mean KD value for each compound was calculated from three separate experiments.

Jeko-1 (SOX11+) = assay: Cell viability assay (CellTiter-Blue resazurin reduction); format: cell-based; conditions: JeKo-1 cells; for pIC50: 0-40 μM
Procedure: Cell viability was determined by a fluorometric resazurin reduction method (CellTiter-Blue; Promega, Madison, Wis.) following the manufacturer's instructions. […] Cells were incubated for 72 hours. After incubation, 20 μl CellTiter-Blue Cell was added to each well and incubated for another 2 hours. […] The number of viable cells in each treated well was calculated, based on the linear least squares regression of the standard curve (OD vs. cell concentration). The viability of cells treated with compounds was normalized to the viability of cells treated with 0.2% Dimethyl sulfoxide (DMSO). Cell counts were confirmed with Trypan Blue Exclusion Assay on the Countess automated cell counter (Invitrogen) according to the manufacturer's specifications. The average and mean standard deviation were calculated from three separate experiments. IC50 values were calculated using the GraphPad Prism (version 4.00) based on a sigmoidal dose-response equation.

[1] = Homo sapiens, JeKo-1, 72 h, 20 μM compound, normalized to 0.2% DMSO

SMILES	pKd ((His)6-SOX11-DBD protein)	pIC50 (Jeko-1 (SOX11+); Homo sapiens, JeKo-1, 72 h)	viability at 20 µM (Jeko-1 (SOX11+); [1]) [%]	pIC50 (Jeko-1 (SOX11+); 72 hours)	Jeko-1 Viability at 20 μM (%) (Jeko-1 (SOX11+); 20 μM compound, 72 hours, normalized to 0.2% DMSO, 20 µM)	viability at 20 µM (Jeko-1 (SOX11+); Homo sapiens, 20 μM compound, 72 hours, normalized to 0.2% DMSO) [%]	pIC50 (Jeko-1 (SOX11+); Homo sapiens, 72 hours)
O=C(Nc1ccc(S(=O)(=O)Nc2ccccc2)cc1)c1ccc2[nH]ncc2c1	4.11	4.70	47.6				
CC1Sc2ccc(C(=O)Nc3ccc(S(=O)(=O)Nc4ccccc4)cc3Cl)cc2NC1=O (centres unmarked)	5.51	> 4.70	36.2				
CC1Sc2ccc(C(=O)Nc3ccc(S(=O)(=O)N(C)C)cc3)cc2NC1=O (centres unmarked)	4.81	4.82	19.6				
O=C(Nc1ccc(S(=O)(=O)Nc2ccccc2)cc1)c1ccc2cnccc2c1	3.87	4.82	6.45				
CC1Sc2ccc(C(=O)Nc3cccc(S(=O)(=O)Nc4ccccc4F)c3)cc2NC1=O (centres unmarked)	4.54	4.89	22.7				
O=C(Nc1cccc(S(=O)(=O)N2CCCCC2)c1)c1ccc2c(c1)CCCS2	5.52		54.2				
CC1Sc2ccc(C(=O)Nc3ccc(S(=O)(=O)Nc4ccc(O)cc4)cc3)cc2NC1=O (centres unmarked)	4.49	> 4.70	13.7				
CC1Sc2ccc(C(=O)Nc3cccc(S(=O)(=O)NC4CCCC4)c3)cc2NC1=O (centres unmarked)	4.81	4.80	38.5				
CC1Sc2ccc(C(=O)Nc3cccc(S(=O)(=O)Nc4ccc(Cl)cc4)c3)cc2NC1=O (centres unmarked)	5.37	4.94	10.4				
CC1Sc2ccc(C(=O)Nc3ccc(Cl)c(S(=O)(=O)N4CCCC4)c3)cc2NC1=O (centres unmarked)	4.62		1.39				
CC(C)NS(=O)(=O)c1ccc(NC(=O)c2ccc3c(c2)NC(=O)C(C)S3)cc1 (centres unmarked)	5.01	5.10	20.3				
Cc1ccc(NC(=O)c2ccc3c(c2)N(C)C(=O)CS3)cc1S(=O)(=O)N1CCCC1	4.44		90.9				
O=C(Nc1ccc2cccnc2c1)c1ccc(OCc2ccccc2)cc1	5.45	5.10	22.8				
CC1Sc2ccc(C(=O)Nc3ccc(S(=O)(=O)N4CCCC4)cc3)cc2NC1=O (centres unmarked)	3.86	5.07	2.97				
Cc1ccccc1COc1cccc(NC(=O)c2ccc3c(c2)NC(=O)C(C)S3)c1 (centres unmarked)	5.27		110				
O=C(Nc1ccc(S(=O)(=O)N2CCCC2)c(Cl)c1)c1ccc2c(c1)CCCS2	5.41		1.26				
CN1C(=O)COc2ccc(C(=O)Nc3ccc(S(=O)(=O)N4CCCCC4)cc3)cc21	5.27	< 4.70	90.6				
CC1Sc2ccc(C(=O)Nc3ccc(S(=O)(=O)NC4CC4)cc3)cc2NC1=O (centres unmarked)	4.72	5.15	14.9				
Cc1ccc(NS(=O)(=O)c2ccc(NC(=O)c3ccc4c(c3)NC(=O)C(C)S4)cc2)cc1 (centres unmarked)	4.91	5.00	0.51				
c1ccc(COc2cccc(CNc3ccc4cncnc4c3)c2)cc1	4.62		1.4				
Cc1cccc(NCc2ccc(NC(=O)c3ccc4c(c3)NC(=O)C(C)S4)cc2)c1 (centres unmarked)	5.09		79				
CC1Sc2ccc(C(=O)Nc3ccc(C(=O)Nc4ccccc4)cc3)cc2NC1=O (centres unmarked)	4.86	< 4.70	97.5				
O=C(Nc1ccc(S(=O)(=O)Nc2ccccc2)cc1)c1ccc2snnc2c1	5.25	5.00 to 5.30	34.3				

SMILES	pKd ((His)6-SOX11-DBD protein)	pIC50 (Jeko-1 (SOX11+); Homo sapiens, JeKo-1, 72 h)	viability at 20 µM (Jeko-1 (SOX11+); [1]) [%]	pIC50 (Jeko-1 (SOX11+); 72 hours)	Jeko-1 Viability at 20 μM (%) (Jeko-1 (SOX11+); 20 μM compound, 72 hours, normalized to 0.2% DMSO, 20 µM)	viability at 20 µM (Jeko-1 (SOX11+); Homo sapiens, 20 μM compound, 72 hours, normalized to 0.2% DMSO) [%]	pIC50 (Jeko-1 (SOX11+); Homo sapiens, 72 hours)
CC1Sc2ccc(C(=O)Nc3cccc(S(=O)(=O)N(C)C)c3)cc2NC1=O (centres unmarked)	4.16	5.07	1.43				
CCC1Sc2ccc(C(=O)Nc3ccc(S(=O)(=O)Nc4ccccc4)cc3)cc2NC1=O (centres unmarked)	5.84	4.92	36.7				
O=C(Nc1cccc(S(=O)(=O)N2CCCC2)c1)c1ccc2c(c1)CCCS2	5.70		27.1				
CC1Sc2ccc(C(=O)Nc3ccc(S(=O)(=O)NC4CCCC4)cc3)cc2NC1=O (centres unmarked)	4.87	4.82	36.3				
CN1C(=O)CSc2ccc(C(=O)Nc3ccc(S(=O)(=O)N4CCCC4)c(Cl)c3)cc21	4.56		16				
CC1Sc2ccc(C(=O)Nc3ccc(CNc4cccc(S(=O)(=O)F)c4)cc3)cc2NC1=O (centres unmarked)	5.78			4.80			
CC1Sc2ccc(C(=O)Nc3cccc(S(=O)(=O)Nc4cccc(F)c4)c3)cc2NC1=O (centres unmarked)	6.20	5.00	13.1				
CC1Sc2ccc(C(=O)Nc3ccc(S(=O)(=O)N(C)C(C)C)cc3)cc2NC1=O (centres unmarked)	4.41	5.10	0.92				
CC1Sc2ccc(C(=O)Nc3ncc(S(=O)(=O)Nc4ccccc4)s3)cc2NC1=O (centres unmarked)	5.51	< 4.70	88				
Cc1ccc(NC(=O)c2ccc3c(c2)N(C)C(=O)CS3)cc1S(=O)(=O)N1CCCCC1	5.05		3.42				
CC1Sc2ccc(C(=O)Nc3ccc(S(=O)(=O)Nc4ccccn4)cc3)cc2NC1=O (centres unmarked)	3.89	< 4.70	96.4				
CC1Sc2ccc(C(=O)Nc3ccc(S(=O)(=O)N4CCNCC4)cc3)cc2NC1=O (centres unmarked)	4.76	< 4.70	92.4				
c1ccc(COc2ccc(CNc3ccc4cnccc4c3)cc2)cc1	4.47		1.2				
Cc1cc(NC(=O)c2ccc3c(c2)NC(=O)C(C)S3)ccc1S(=O)(=O)Nc1ccccc1 (centres unmarked)	5.60	5.00	1.22				
CC1Sc2ccc(C(=O)Nc3ccc(S(=O)(=O)N(C)c4ccccc4)cc3)cc2NC1=O (centres unmarked)	5.83	5.05	18				
CC1Sc2ccc(C(=O)Nc3ccc(S(C)(=O)=O)cc3)cc2NC1=O (centres unmarked)	5.15	4.82	30.6				
CC1Sc2ccc(C(=O)Nc3ccc(S(=O)(=O)Nc4ccccc4)cc3)cc2NC1=O (centres unmarked) [drawing 468]	4.42			4.90	0.83		
CC1Sc2ccc(C(=O)Nc3ccc(S(=O)(=O)Nc4cccnc4)cc3)cc2NC1=O (centres unmarked)	5.14	< 4.70	92				
CC1Sc2ccc(C(=O)Nc3cccc(CNc4ccc(OS(=O)(=O)F)cc4)c3)cc2NC1=O (centres unmarked)	5.45					4.81	5.00
CC1Sc2ccc(C(=O)Nc3ccc(CN4CCCCC4)cc3)cc2NC1=O (centres unmarked)	5.46		108				
CC1Sc2ccc(C(=O)Nc3cccc(S(=O)(=O)N4CCNCC4)c3)cc2NC1=O (centres unmarked)	3.88	< 4.70	114				
CN(c1ccccc1)S(=O)(=O)c1cccc(NC(=O)c2ccc3snnc3c2)c1	5.08	5.00	10.6				
CC1Sc2ccc(C(=O)Nc3ccc(S(=O)(=O)Nc4ccc(N)cc4)cc3)cc2NC1=O (centres unmarked)	4.71	< 4.70	88				
